# Experiments:
# dry eye syndrome = type: in vivo
# Procedure: The aim of the study was to evaluate the tolerability and therapeutic potential of PP-001 in a murine model of dry eye syndrome.
# Dry eye symptoms were induced in forty (40) pigmented C57BL/6N mice by exposing them to a controlled environment (relative humidity<25%, air-flow 15 L/min, temperature 20-22° C.) and systemic scopolamine administration (0.5 mg/72 h) for 10 days.
# Mice were randomized into 4 groups of 10 animals and treated with PP-001, Restasis®, placebo and the forth group remained untreated.
# Tear production and corneal defects were evaluated on days 3, 7 and 10 using phenol red thread and fluorescence staining in each of the four groups.
# Preparation of Eye Drop Solutions:
# Placebo eye drops: A solution containing 20 mg/ml polyvinylpyrrolidone, 10 mg/ml glycerol 85%, 2 mg/ml hydroxypropyl methylcellulose in sodium phosphate buffer adjusted to pH 7.
# PP-001 eye drops: A solution containing 1.6 mg/ml PP-001, 20 mg/ml polyvinylpyrrolidone, 10 mg/ml glycerol 85%, 2 mg/ml hydroxypropyl methylcellulose in sodium phosphate buffer adjusted to pH 7.
# Positive control: Restasis® (cyclosporine ophthalmic emulsion from Allergan)
# [1] = test system: experimental autoimmune uveitis (EAU); assay: Prevention of relapses in the experimental autoimmune uveitis (EAU) rat model, R14-induced, intravitreal injection; type: in vivo, Lewis rats
# Source text: Experimental autoimmune uveitis (EAU) in Lewis rats is a model for human endogenous uveitis. The disease is mediated by CD4+ T lymphocytes of the T helper 1 (Th1) and Th17 subtypes. In Lewis rats the disease was induced by immunizing animals with retinal antigens such as interphotoreceptor retiniod-binding protein (IRBP) and adjuvant. IRBP is also considered to be an autoantigen in humans. Peptide R14, a 23mer from IRBP, is the most pathogenic epitope for Lewis rats. Immunization with these peptides emulsified in Complete Freund's Adjuvant (CFA) leads to severe inflammation of the anterior chamber of the eyes and destruction of the retinal architecture. R14 causes a relapsing-remitting disease with an early onset (about day 7), the peak of EAU between day 10 to 14 and the remission around day 17/18. 20 rats were immunized with 15 μg IRBP-peptide R14 emulsified in complete Freund's adjuvant. After primary disease, PP-001 was injected intravitreally at day 18 (6 μl=3 μg PP-001) in both eyes of 10 animals. One eye in this group dropped out because of penetrating the eye during injection. 10 animals received 6 μl PBS intravitreally in both eyes as control group. Clinical grade of inflammation in the anterior chamber was determined daily.
# [2] = test system: retinal and choroidal tissue; assay: Tolerability of intravitreal injections of PP-001 solutions in Dutch Belted rabbits; type: in vivo; details: intravitreal 0.0625 or 0.125 mg/eye
# Ad5 McEwen = assay: Experimental adenoviral ocular infection (Ad5/NZW rabbit ocular model), eye drops, plaque assay on A549 monolayers; type: in vivo
# Procedure: 25 New Zealand White rabbits were inoculated in both eyes following general anesthesia with ketamine and xylazine, topical anesthesia with proparacaine, and corneal scarification (12 cross-hatched strokes of a #25 needle) with 50 μl of 3.0×10^7 PFU/ml (1.5×10^6 PFU/eye) of Ad5 McEwen (Stock 1/17/08, 4.08×10^8 PFU/ml). Eyes were closed and gently rubbed for 5 seconds to ensure contact of the virus on all ocular surfaces.
# At least 3 h after inoculation, all eyes were cultured for virus. Following topical anesthesia with proparacaine, a single cotton-tipped swab was placed into the lower fornix of each eye, rolled over the cornea into the upper fornix to recover adenovirus from the tear film and corneal and conjunctival surfaces. The swabs from each eye were placed individually into tubes containing 1 ml of outgrowth media and were frozen at −70° C. pending plaque assay.
# On day 1, the rabbits were divided into 5 treatment groups outlined in the chart below. The five treatment groups consisted of a vehicle control, 0.16% PP-001 8 times, 6 times, and 4 times daily for 10 days, and the positive antiviral control 0.5% cidofovir (CDV).
# Begin of treatment on day 1. Drops were administered with at least a 45 min interval between drops. All eyes from all groups were cultured for virus on days 1, 3, 4, 5, 7, 9, 11, and 14 PI at least 1 h after the final doses of the treatments described above. At various times during the course of the experiment, Ad5 titers were determined on A549 cell monolayers using standard plaque assays. The ocular cultures to be titered were thawed, diluted (1:10) and inoculated onto A549 monolayers. The virus was adsorbed for 3 h. Following adsorption, 1 ml of media plus 0.5% methylcellulose was added to each well, and the plates were incubated at 37° C. in a 5% […] atmosphere. After 7 days incubation, the cells were stained with 0.5% gentian violet, and the number of plaques were counted under a dissecting microscope (25×). The viral titers were then calculated, and expressed as plaque-forming units per milliliter (PFU/ml). […]
# intraocular tissues = assay: Local tolerability of intravitreal injections of PP-001 in rat eyes; type: in vivo; details: high dose PP-001 (150 μg/ml, 10 μl intravitreal); 8 days
# Procedure: For this purpose, three different doses of PP-001, dissolved in phosphate-buffered saline (PBS) and a vehicle control with PBS only were injected into the posterior chamber (=vitreous) of rat eyes. The eyes (anterior chamber) were examined daily with an ophthalmoscope and after 8 days the experiment was terminated, and the eyes processed for histology (cryosections).
# 8 Lewis rats (age 7-8 weeks) were anesthetized using 0.5 mg/kg medetomidine s.c. Additional topical anesthesia with 0.4% oxybuprocaine eye drops was applied. After intraocular injection sedation was antagonized with an s.c. injection of 2.5 mg/kg atipamezol.
# 10 μl of solution were injected into the vitreous of both eyes with a 30 G needle, controlled under an operation microscope. The perpendicular injection is penetrating the […] and should neither touch the lens or the retina. After injection an antibiotic ointment was applied to the eyes to avoid infections.
# PP-001 was dissolved in PBS and applied intravitreally in 3 different concentrations.
# Group 1, Rat 1-1 and 1-2: 10 μl PBS (vehicle control)
# in vivo = assay: in vivo; design: species or system Dutch Belted rabbits; details: male, Dutch Belted, rabbit, topical or ocular; for half-life: t1/2
# Procedure: 36 male Dutch Belted rabbits were divided in […]: 16 animals each in group 1 and 2 received 0.0625 mg and 0.125 mg PP-001 per eye, 4 animals were administered with dose vehicle (sucrose solution) only. At designated time points animals were sacrificed and vitreous humor, retina, and choroid were collected from both eyes of each animal and weighed. Samples were analysed for PP-001 concentration using a specific HPLC/MS/MS analytical method and PK parameters were calculated with Phoenix WinNonlin software (v6.3) using a non-compartmental model with sparse sampling.
# Animals were anesthetized with an intramuscular injection of ketamine hydrochloride (30 mg/kg) and xylazine (5 mg/kg) for the injection procedure.
# The study director performed the IVT injection in both eyes (OU). Topical ocular anesthetics were used per ASI SOPs.
# The eyes and surrounding tissues were cleaned and disinfected with 2% betadine ophthalmic solution and then rinsed with basic salt solution (BSS). Using a 30 gauge needle with length no greater than ⅝ inch, injections were made 5 to 7 mm from the limbus (where the cornea meets the sclera). Once inserted, the PP-001 or vehicle control was injected at a volume of 25 μL per eye. The needle was then removed and the eye rinsed with BSS.
# Vitreous humor and choroid/sclera/retina were collected from both eyes of each animal at the designated time point and analyzed for PP-001 concentration using a specific HPLC/MS/MS analytical method.
# [3] = test system: vascular endothelial growth factor (VEGF); assay: Cellular protein expression of VEGF in antigen-stimulated rat lymph node/T cell cultures (Luminex multiplex cytokine assay); type: cell-based; details: 3 μM, 10 μM and 30 μM; supernatants after 24 h
# Procedure: Rats were immunized with 25 μg of the respective peptide as previously described.
# After 10 to 12 days popliteal, inguinal and para-aortal lymph nodes (LN) were collected, single cell suspensions were stimulated with the respective antigen peptides at a final concentration of 10 μg/ml RPMI1640, supplemented with Penicillin/Streptomycin, L-Glutamine, essential and non-essential amino acids (all 4 from PAA, Colebee, Germany), 12.5 μM […] and 1% normal rat serum. After 3 days the cells were expanded in culture medium supplemented with 10% spleen conditioned medium (from Concanavalin A-stimulated rat spleen cells) and 5% fetal calf serum (FCS) for 4 days.
# For restimulation 0.5-2×10^6 T cells/ml were incubated with irradiated (8 Gy) rat thymocytes (3-10 fold more than T cells) as antigen-presenting cells (APC) and 10 μg/ml of the specific antigen peptide in culture medium as described for the first stimulation. After two days of culturing cells were expanded with conditioned medium for 5 days as described above, followed by another cycle of restimulation and expansion. […]
# [4] = test system: choroidal neovascularization; assay: Inhibition of choroidal neovascularization in PDSAg-induced EAU rat model; type: in vivo, Lewis rats
# Source text: Choroidal neovascularization is a known feature of posterior uveitis and a major cause of retinal destruction and loss of vision. To monitor the effect of PP-001 on neovascularization, the EAU model in Lewis rats was used. In Lewis rats the disease was induced by immunizing animals with retinal antigen PDSAg, a 14mer derived from S—Ag. Immunization with that peptide emulsified in Complete Freund's Adjuvant (CFA) leads to severe inflammation of the anterior chamber of the eyes and destruction of the retinal architecture and choroidal neovascularization Induction with PDSAg causes a monophasic disease with first clinical signs of inflammation observed between day 8 and 12 after immunization and reaching the peak of disease between day 14 and 18. Inflammation in the anterior chamber subsides until day 21 to 22 post immunization. Long term effects such as choroidal neovascularization are seen at the later stages of the disease after the inflammation of the anterior chamber has subsided. 18 Lewis rats were immunized with PDSAg. Starting at the beginning of the disease (day 9 post immunization) 6 animals were treated with PP-001 and 6 animals were treated with vehicle control. […] Post day 25 experiment was stopped and 12 eyes for each treatment group were histological analyzed for the presence of choroidal neovascularizations.
smiles,measurement,setting,value
"O=C(Nc1c(F)c(F)c(-c2cccc(OC(F)(F)F)c2)c(F)c1F)c1ccsc1C(=O)O [PP-001, 3-(2,3,5,6-tetrafluoro-3′-trifluoromethoxy-biphenyl-4-ylcarbamoyl)-thiophene-2-carboxylic acid]",corneal staining compared to placebo treatment,dry eye syndrome; Day 10,reduced
same,corneal staining in comparison to the induced untreated group,"dry eye syndrome; Day 10, multiple instillations",reduced significantly
same,corneal surface damage,dry eye syndrome; multiple topical administrations of PP-001 1.6 mg/mL,reduced corneal surface damage comparable to Restasis®
same,time to the appearance of the first relapse,"[1]; single intravitreal injection at day 18, 3 μg per eye, compared to placebo group",delayed
same,reduction of the number of relapses,"[1]; single intravitreal injection at day 18, 6 μl = 3 μg per eye, vs PBS control",> 50%
same,effect on the retinal and choroidal tissue,[2],did not have any significant effect
same,dose response of antiviral efficacy,"Ad5 McEwen; 0.16% PP-001 8 times and 6 times per day vs 4 times per day, 10 days",more efficacious than 0.16% PP-001 instilled 4 times per day for 10 days
same,safety as topical antiviral agent,"Ad5 McEwen; 0.16% PP-001 eye drops, 4-8 times daily for 10 days",safe
same,antiviral efficacy (topical),"Ad5 McEwen; 0.16% PP-001 eye drops, Ad5 titers PFU/ml",efficacious
same,eyes completely normal,intraocular tissues,2 of 4
same,Cmax,in vivo; 0.0625 mg,33.2 µg/g
same,t1/2,in vivo; 0.0625 mg,14.5 h
same,Cmax,"in vivo; 0.0625 mg, Cmax",25.7 µg/g
same,half-life,in vivo; 0.0625 mg,14.3 h
same,Cmax,in vivo; 0.125 mg,56.9 µg/g
same,t1/2,in vivo; 0.125 mg,13.1 h
same,Cmax,"in vivo; 0.125 mg, Cmax",61.5 µg/g
same,half-life,in vivo; 0.125 mg,21.4 h
same,protein expression of VEGF,[3],reduced
same,reduction of number of choroidal neovascularizations (factor),"[4]; treatment started at beginning of uveitis (day 9 post immunization), vs vehicle, p<0.005",3
same,mean number of choroidal neovascularizations,"[4]; treatment started at day 15 (peak of disease), vehicle mean 6, p<0.05",3

# Reference: US11730716B2, “Compounds for treating ophthalmic diseases and disorders” (priority 2014, dated 2023)
